Measured values as given in patent publication US20080200403A1, “9A-Carbamoyl and Thiocarbamoyl Azalides with Anti-Inflammatory Activity” (GLAXOSMITHKLINE, priority 2005, published 2008).
Read-outs that look alike come from different tables or passages of the source.

Tests used:
[1] = test system: human granulocytes; assay: Oxidative burst inhibition assay on granulocytes (luminol); assay type: cell-based; conditions: Homo sapiens; for inhibition at 12.5 µM: compound 12.5 μM; for inhibition at 50 µM: compound 50 μM
Procedure: Granulocytes were obtained from heparinized whole blood using density gradient centrifugation. Erythrocytes were sedimented on 3% dextran T-500 (Amersham Pharmacia Biotech AB, Uppsala, Sweden). Leukocytes were centrifuged on Ficoll (Amersham Pharmacia Biotech AB, Uppsala, Sweden) for 35 min at 600 g at 20° C. The pellet of granulocytes was cleared from remaining erythrocytes by a brief hypotonic lysis.
The effect of compounds on oxidative burst was investigated in vitro with oxidative burst assay in human granulocytes, isolated as described above. Assay was done in 96 well plate. Blood was obtained from healthy volunteers (Transfusion Center, Croatia) and human granulocytes were isolated by dextran sedimentation and ficoll extraction method, as described above. In each well 50000 isolated granulocytes were suspended in 100 μL of DMEM. Final concentrations of the tested compounds were 50 and 12.5 μM. Than, 50 μL of luminol (c=0.25 mg/mL) was added. Luminol as a detector of oxidative burst react with superoxide and light is produced as one of the reaction products. Subsequently, 50 μL of stimuli, phorbol-12-myristate acetate (PMA) (c=33 ng/mL) or Zymosan (c=120 μg/mL), were added.

[2] = test system: Male BALB/cJ mice; assay: Lung neutrophilia induced by bacterial lipopolysaccharide in male BALB/cJ mice; assay type: in vivo; conditions: single 5 mg dose i.p., intranasal LPS, BALF about 24 hours after LPS, compared to positive control
Procedure: Male BALB/cJ mice (Iffa Credo, France), with average weight ˜30 g were randomly grouped (n=7 in testing group, 8 in positive control, 7 in negative control). Mice were administered intraperitoneally (i.p.) a single 5 mg dose of test compound. Two hours after administration, 2 μg of bacterial lipopolysaccharide (LPS), dissolved in PBS in a volume of 60 μL, was intranasally administered to all experimental groups except the negative control group, which received the same volume (60 μL) of vehicle PBS. Animals were sacrificed approximately 24 hours after application of LPS in order to obtain bronchoalveolar lavage fluid (BALF), which was used to determine concentrations of IL-6 and TNF-α, absolute number of cells, and the percentage of neutophils in BALF. Results are expressed as percentage of decrease of total cell number, relative number of neutrophils, and TNF-α and IL-6 concentration in BALF of treated animals compared to positive control (LPS stimulated, but untreated animals).
Besides accumulation of inflammatory cells in BALF, the extent and anatomic site of pulmonary inflammation induced by LPS was assessed 24 hours after PBS or LPS exposure. Accumulation of granulocytes and mononuclear cells in peribronchial (PB) and perivascular (PV) lung tissue areas and in alveolar spaces was monitored following sacrifice of the animals.

[3] = test system: TNF-α; assay: Lipopolysaccharide induced TNF-α production in Balb/cJ mice; assay type: in vivo; conditions: LPS stimulated Balb/cJ mice, 10 mg/kg b.w. intraperitoneally, plasma 90 min after challenge
Procedure: Male Balb/cJ mice (Iffa Credo, France), 18 animals weighing 25-33 g were randomly grouped (7 animals were treated with the test compounds, 7 were in positive control and 4 in negative control). Substances, as well as vehiculum [0.125% carboxymethyl-cellulose (Sigma, USA)], were administered intraperitoneally. Substances were administered in the dose of 10 mg/kg b.w. Administered volume was 10 mL/kg b.w. Thirty minutes later, lipopolysaccharide (LPS) (Sigma, USA) solution in sterile saline at concentration and volume of 25 μg/0.2 mL of sterile saline/mouse was intraperitoneally administered to each animal except those in negative control. Ninety minutes after the challenge all animals were bled to death by puncturing a carotis communis. Plasma concentration of TNF-α was determined by sandwich ELISA, using capture and detection antibodies (R&D, USA) according to manufacturer's recommendations. Results are presented in the following table as % of inhibition of TNF-α production in comparison to positive control (challenged but not treated animals).

[4] = test system: A549; assay: MTT cytotoxicity assay on A549 cell line; assay type: cell-based
Procedure: To determine whether the anti-inflammatory activity of the test compounds was due to observed inhibition of cytokine production and inhibition of proliferation in vitro, and was not a consequence of cellular cytotoxicity, measurement of succinate dehydrogenase activity in living cells was performed. Cells were cultured for 24 h in RPMI medium as described above at 37° C. in the presence of the test compounds at concentrations of 50 μM and 12.5 μM. MTT [3-(4,5-dimethylthiazole-2-yl)-2,5-diphenyl tetrazolium bromide] (Promega, USA), a detection reagent, was then added and the cultures were incubated for 0.5-2 h. The amount of MTT-Formazan produced was determined using a spectrophotometer at 490 nm (Mosmann, J. Imnunol. Methods, 1983, 65: 55-63). Percentage of viable cells was calculated using the following formula:
% viable cells=([…]OD490 treated cells/OD490 nontreated cells)×100

[5] = test system: IL-2; assay: Inhibition of IL-2 production by stimulated human PBMC in vitro; assay type: cell-based; conditions: PHA stimulated, 3 days
Procedure: Heparinized peripheral blood was obtained from healthy donors, and peripheral blood mononuclear cells (PBMC) were isolated by Histopaque 1077 (Sigma, USA) density centrifugation on 400 g for 30 minutes. Collected PBMC were centrifuged in plasma on 400 g/10 min, resuspended and washed in RPMI 1640 (Institute of Immunology, Croatia) by centrifugation.
Peripheral blood mononuclear cells (PBMC), isolated as described above, were seeded in a 48-well plate at a concentration of 1×10^6 cells per well in the RPMI culture medium described above. Cells were stimulated with 10 μg/mL phytohaemagglutinin (PHA) (Sigma, USA) and incubated at 37° C., 5% CO2 in 90% humidity with tested compounds (10 and 50 μM) for 3 days. Cytokine concentrations were determined in supernatants by sandwich ELISA, using capture and detection antibodies (R&D, USA) according to the manufacturer's recommendations.
Inhibition (as percentage) was calculated using the following formula: % inhibition=(1−concentration of cytokines in sample/concentration of cytokines in positive control)×100. The positive control refers to stimulated samples, not treated with substances.

[6] = PMA stimulated granulocytes, read-out: % inhibition of Oxidative burst PMA
[7] = Zymosan stimulated granulocytes, read-out: % inhibition of Oxidative burst Zymosan

| SMILES | inhibition at 12.5 µM [1, 6] | inhibition at 50 µM [1, 6] | inhibition at 12.5 µM [1, 7] | inhibition at 50 µM [1, 7] | percentage of decrease of IL-6 concentration in BALF [2] | percentage of decrease of TNF-α concentration in BALF [2] | percentage of decrease of relative number of neutrophils (% of neutrophils) in BALF [2] | percentage of decrease of total cell number in BALF [2] | TNF-α (% inhibition) [3] | Percentage of viable cells after treatment ([4]; human, 24 h, 12.5 μM) | Percentage of viable cells after treatment ([4]; human, 24 h, 50 μM) | Percentage of inhibition of IL-2 production ([5]; compound 10 μM) | Percentage of inhibition of IL-2 production ([5]; compound 50 μM) | Percentage of viable cells after treatment ([4]; A549, 24 h, compound 12.5 μM) | Percentage of viable cells after treatment ([4]; A549, 24 h, compound 50 μM) | inhibition at 10 µM ([5]; Homo sapiens, 72 h, compound 10 μM, read-out: Percentage of inhibition of IL-2 production) | inhibition at 50 µM ([5]; Homo sapiens, 72 h, compound 50 μM, read-out: Percentage of inhibition of IL-2 production) |
| --- | --- | --- | --- | --- | --- | --- | --- | --- | --- | --- | --- | --- | --- | --- | --- | --- | --- |
| CC[C@H]1OC(=O)[C@H](C)[C@@H](O[C@H]2C[C@@](C)(OC)[C@@H](O)[C@H](C)O2)[C@H](C)[C@@H](O[C@@H]2O[C@H](C)C[C@H](N(C)C)[C@H]2O)[C@](C)(O)C[C@@H](C)CN(C)[C@H](C)[C@@H](O)[C@]1(C)O [Azithromycin, azithromycin, reference compound] | 0% | 20% | 0% | 16% | 72 | 66 | 37 | 77 | 54% | 100% | 100% |  |  |  |  |  |  |
| CCC1OC(=O)C(C)C(OC2CC(C)(OC)C(O)C(C)O2)C(C)C(OC2OC(C)CC(N(C)C)C2O)C(C)(O)CC(C)CN(C(=S)Nc2cccc(F)c2)C(C)C(O)C1(C)O (stereo not shown) [Compound 3] |  |  |  |  |  |  |  |  | 29% |  |  | 86% | 98% | 100% | >90% |  |  |
| CCC1OC(=O)C(C)C(O)C(C)C(OC2OC(C)CC(N(C)C)C2O)C(C)(O)CC(C)CN(C(=S)NCc2ccccc2)C(C)C(O)C1(C)O (stereo not shown) [Compound 1] |  |  |  |  | 28 | 41 | 9 | 50 | 31% |  |  | 61% | 95% |  |  |  |  |
| CC[C@H]1OC(=O)[C@H](C)[C@@H](O[C@H]2C[C@@](C)(OC)[C@@H](O)[C@H](C)O2)[C@H](C)[C@@H](O[C@@H]2O[C@H](C)C[C@H](N(C)C)[C@H]2O)[C@](C)(OC)C[C@@H](C)C(=O)[C@H](C)[C@@H](O)[C@]1(C)O [Clarithromycin, clarithromycin, reference compound] | 0% | 3% | 4% | 19% | 60 | 78 | 36 | 77 | 63% | 100% | 100% |  |  |  |  | 0% | 3% |
| CC[C@H]1OC(=O)[C@H](C)[C@@H](O[C@H]2C[C@@](C)(OC)[C@@H](O)[C@H](C)O2)[C@H](C)[C@@H](O[C@@H]2O[C@H](C)C[C@H](N(C)C)[C@H]2O)[C@](C)(O)C[C@@H](C)CN(C(=S)Nc2cccc(C(F)(F)F)c2)[C@H](C)[C@@H](O)[C@]1(C)O [Compound 4] | 16% | 85% | 0% | 100% |  |  |  |  |  |  |  |  |  |  |  |  |  |
| CC[C@H]1OC(=O)[C@H](C)[C@@H](O[C@H]2C[C@@](C)(OC)[C@@H](O)[C@H](C)O2)[C@H](C)[C@@H](O[C@@H]2O[C@H](C)C[C@H](N(C)C)[C@H]2O)[C@](C)(O)C[C@@H](C)CN(C(=S)Nc2ccccc2F)[C@H](C)[C@@H](O)[C@]1(C)O [Compound 5] |  |  |  |  |  |  |  |  | 50% | 100% | 100% |  |  |  |  |  |  |
